Patent publication EP0426075A1, “Benzylpyrrolidine derivatives as dopamine agonists” (SYNTEX (U.S.A.) INC., priority 1989, dated 1991)

Assays:
DA2 receptor = assay: Goldberg in situ femoral arterial preparation (DA2 assay), intra-arterial injection; assay type: in vivo, dog; settings: for ED50: blood flow increase, i.a. bolus into femoral artery, anesthetized dog; for Relative Efficacy to DA2 Standard: optimal response of test compound divided by optimal response of DPDA; for Relative Potency to DA2 Standard: standard (DPDA) ED50 divided by test compound ED50
Procedure: The compounds were subsequently tested following intra-arterial administration in an in situ renal and femoral arterial preparation in the dog, as developed by L.I. Goldberg, to test for DA1 and DA2 dopamine activity, respectively. Details of the methodology are provided in the European J. Pharmacol. 89 :137, 1983, as well as in Hypertension 6 :1-25, 1984.
The compounds of this invention were tested following intra-arterial administration in an in situ renal and femoral arterial preparation in the dog, as developed by L.I. Goldberg, to test for DA1 and DA2 dopamine activity, respectively. Details of the methodology are provided in the European J. Pharmacol. , 89 :137, 1983, as well as in Hypertension , 6 :1-25, 1984. J. L. McNay, L. I. Goldberg JPET 151 :23-31, 1966.
The compounds were injected directly into the renal or femoral artery for analysis of DA, or DA2 activity, respectively. […] The compounds were tested for relative activity in comparison to the standard DA, agonist, dopamine or the standard DA2 agonist, DPDA. Specific DA, or DA2 activity of the tested compound was verified by Sch 23390 or domperidone blockade.
Adult mongrel dogs of either sex (12-20 kg) were anesthetized with pentobarbital sodium (33 mg/kg, i.v.). The animals were intubated and ventilated with room air using a Harvard respirator.
The compounds of this invention were tested following intra-arterial administration in an in situ renal and femoral arterial preparation in the dog, as developed by L.I. Goldberg, to test for DA1 and DA2 dopamine activity, respectively. Details of the methodology are provided in the European J. Pharmacol. , 89 :137, 1983, as well as in Hypertension , 6 :1-25, 1984. J. L. McNay, L. I. Goldberg JPET 151 :23-31, 1966
The compounds were injected directly into the renal or femoral artery for analysis of DA1 or DA2 activity, respectively. […] The compounds were tested for relative activity in comparison to the standard DA1 agonist, dopamine or the standard DA2 agonist, DPDA. Specific DA, or DA2 activity of the tested compound was verified by Sch 23390 or domperidone blockade.
The thoracic aorta was catheterized with a Millar micro-tip (size 5F) transducer via the right carotid artery for blood pressure monitoring. The right external jugular vein was cannulated with PE-160 tubing for supplemental pentobarbital administration. The left femoral artery was isolated and an electromagnetic flowprobe of the appropriate size (8-11 mm circ.) was placed around the artery and connected to a Caroline Medical electromagnetic flowmeter. Surface ECG leads were placed subcutaneously on the chest and limbs to monitor heart rate. A 25 gauge 3/4" needle bent 90` , 4 mm from the tip, was placed in the femoral artery proximal to the probe and connected to an infusion pump delivering saline at a constant rate of 1 ml/min. Following a saline and bradykinin challenge (0.02 to 0.04 nmoles, in 0.2 ml saline, i.a.), a dose response curve for DPDA was generated by injecting 4-fold increasing doses i.a. ranging from 3 to 48 nmoles in 0.2 ml saline. Test compounds were injected similarly in 4-fold increasing doses up to 3000 nmoles. Compounds were then repeated at their optimal dose following domperidone pretreatment (10-40 Ilg/kg, iv).
Efficacy ratios were determined by division of the optimal response of the test compound by the optimal response of the standard agent. The optimal dose of compound was defined as that which produced a maximum increase in blood flow before causing a change in systemic blood pressure. ED50 values were derived by regression analysis from individually generated dose response curves. Potency ratios were the quotients calculated from the division of the standard agent EDso by the ED50 of the test compound. […] If the inhibition of the test compound was similar to that of dopamine or DPDA, the compound was considered to be a DA, or DA2 agonist, respectively.

[1] = system: conscious restrained spontaneously hypertensive rat; assay: Spontaneous Hypertensive Rats - antihypertensive activity, conscious restrained, oral; assay type: in vivo; settings: for Peak decreases, mean blood pressure / Peak decreases, systolic blood pressure / heart rate following administration / duration of action: SHR, oral; for duration of action: blood pressure decrease; for Diastolic Blood Pressure (mm Hg) / Heart Rate (beats/ min) / Mean Blood Pressure (mm Hg) / Systolic Blood Pressure (mm Hg): change from control (XΔ ± SD), n = 4
Procedure: Finally, these compounds were screened for oral antihypertensive activity in the conscious restrained rat. Adult male SHR were instrumented for blood pressure and heart rate measurements under light ether anesthesia. The animals were maintained on a plexiglass restraining board following surgery, and were allowed a 1 hour recovery period prior to the oral administration of the test compounds.
The compounds of this invention were screened for oral antihypertensive activity in the conscious restrained spontaneously hypertensive rat.
Male spontaneously hypertensive rats, SHR/NCrIBr (320-410 g) were fasted overnight. The following morning the left femoral artery and vein of each rat was cannulated under light ether anesthesia. Following surgery, the rats were placed on a rat restraining board and allowed to recover from the effects of the ether for 1 hour. ECG leads were placed on the animal's chest to monitor heart rate. Animals were divided into groups of 4 and dosed with the test compounds.
Blood pressure and heart rate readings were taken at 5 minute intervals for the first 15 minutes and […] thereafter for a duration of 4 hour post-compound administration. Data was evaluated by two- tailed paired t-tests.

Br.Br.CCCN(CCCCCCN1CCC[C@@H]1Cc1ccc(O)c(O)c1)CCc1ccc(O)cc1 [Test Compound 1, (R)-2-(3,4-dihydroxybenzyl)-1-[6-(N-(4-hydroxyphenethyl)-N-propylamino)hexyl]pyrrolidine dihydrobromide]
ED50 (DA2 receptor): 0.02 nmol | Relative Efficacy to DA2 Standard (DA2 receptor): 1.29 | Relative Potency to DA2 Standard (DA2 receptor): 327.50 | Peak decreases, mean blood pressure [1]: about 20% | Peak decreases, systolic blood pressure [1]: about 20% | heart rate following administration [1]: not significantly altered | duration of action [1]: up to 4 hours

Br.Br.CCCN(CCCCCCN1CCC[C@@H]1Cc1ccc(O)c(O)c1)CCc1cccc(O)c1 [Test Compound 2, (R)-2-(3,4-dihydroxybenzyl)-1-[6-(N-(3-hydroxyphenethyl)-N-propylamino)hexyl]pyrrolidine dihydrobromide]
ED50 (DA2 receptor): 0.04 nmol | Relative Efficacy to DA2 Standard (DA2 receptor): 1.26 | Relative Potency to DA2 Standard (DA2 receptor): 216.00 | Peak decreases, mean blood pressure [1]: 17% | Peak decreases, systolic blood pressure [1]: 17% | heart rate following administration [1]: not significantly altered | duration of action [1]: up to 4 hours | Diastolic Blood Pressure (mm Hg) ([1]; po 3 mg/kg, 1 hour): -8 ± 12 mm Hg | Heart Rate (beats/ min) ([1]; po 3 mg/kg, 1 hour): -5 ± 12 beats/ min | Mean Blood Pressure (mm Hg) ([1]; po 3 mg/kg, 1 hour): -12 ± 18 mm Hg | Systolic Blood Pressure (mm Hg) ([1]; po 3 mg/kg, 1 hour): -13 ± 25 mm Hg | Diastolic Blood Pressure (mm Hg) ([1]; po 3 mg/kg, 2 hours): -6 ± 3 mm Hg | Heart Rate (beats/ min) ([1]; po 3 mg/kg, 2 hours): 5 ± 11 beats/ min | Mean Blood Pressure (mm Hg) ([1]; po 3 mg/kg, 2 hours): -7 ± 8 mm Hg | Systolic Blood Pressure (mm Hg) ([1]; po 3 mg/kg, 2 hours): -9 ± 13 mm Hg | Diastolic Blood Pressure (mm Hg) ([1]; po 3 mg/kg, 3 hours): -4 ± 17 mm Hg | Heart Rate (beats/ min) ([1]; po 3 mg/kg, 3 hours): 6 ± 18 beats/ min | Mean Blood Pressure (mm Hg) ([1]; po 3 mg/kg, 3 hours): -8 ± 14 mm Hg | Systolic Blood Pressure (mm Hg) ([1]; po 3 mg/kg, 3 hours): -19 ± 22 mm Hg | Diastolic Blood Pressure (mm Hg) ([1]; po 3 mg/kg, 4 hours): -9 ± 7 mm Hg | Heart Rate (beats/ min) ([1]; po 3 mg/kg, 4 hours): 10 ± 23 beats/ min | Systolic Blood Pressure (mm Hg) ([1]; po 3 mg/kg, 4 hours): -29 ± 19 mm Hg | Diastolic Blood Pressure (mm Hg) ([1]; po 10 mg/kg, 1 hour): -19 ± 3 mm Hg | Heart Rate (beats/ min) ([1]; po 10 mg/kg, 1 hour): -11 ± 6 beats/ min | Mean Blood Pressure (mm Hg) ([1]; po 10 mg/kg, 1 hour): -21 ± 3 mm Hg | Systolic Blood Pressure (mm Hg) ([1]; po 10 mg/kg, 1 hour): -26 ± 6 mm Hg | Diastolic Blood Pressure (mm Hg) ([1]; po 10 mg/kg, 2 hours): -11 ± 21 mm Hg | Heart Rate (beats/ min) ([1]; po 10 mg/kg, 2 hours): -6 ± 8 beats/ min | Mean Blood Pressure (mm Hg) ([1]; po 10 mg/kg, 2 hours): -21 ± 8 mm Hg | Systolic Blood Pressure (mm Hg) ([1]; po 10 mg/kg, 2 hours): -28 ± 10 mm Hg | Diastolic Blood Pressure (mm Hg) ([1]; po 10 mg/kg, 3 hours): -19 ± 8 mm Hg | Heart Rate (beats/ min) ([1]; po 10 mg/kg, 3 hours): -5 ± 11 beats/ min | Mean Blood Pressure (mm Hg) ([1]; po 10 mg/kg, 3 hours): -27 ± 4 mm Hg | Systolic Blood Pressure (mm Hg) ([1]; po 10 mg/kg, 3 hours): -36 ± 23 mm Hg | Diastolic Blood Pressure (mm Hg) ([1]; po 10 mg/kg, 4 hours): -16 ± 7 mm Hg | Heart Rate (beats/ min) ([1]; po 10 mg/kg, 4 hours): 1 ± 3 beats/ min | Mean Blood Pressure (mm Hg) ([1]; po 10 mg/kg, 4 hours): -22 ± 12 mm Hg | Systolic Blood Pressure (mm Hg) ([1]; po 10 mg/kg, 4 hours): -31 ± 20 mm Hg | Diastolic Blood Pressure (mm Hg) ([1]; po 30 mg/kg, 1 hour): -6 ± 5 mm Hg | Heart Rate (beats/ min) ([1]; po 30 mg/kg, 1 hour): -1 ± 10 beats/ min | Mean Blood Pressure (mm Hg) ([1]; po 30 mg/kg, 1 hour): -5 ± 9 mm Hg | Systolic Blood Pressure (mm Hg) ([1]; po 30 mg/kg, 1 hour): -4 ± 14 mm Hg | Diastolic Blood Pressure (mm Hg) ([1]; po 30 mg/kg, 2 hours): -17 ± 6 mm Hg | Heart Rate (beats/ min) ([1]; po 30 mg/kg, 2 hours): 9 ± 10 beats/ min | Mean Blood Pressure (mm Hg) ([1]; po 30 mg/kg, 2 hours): -14 ± 14 mm Hg | Systolic Blood Pressure (mm Hg) ([1]; po 30 mg/kg, 2 hours): -18 ± 10 mm Hg | Diastolic Blood Pressure (mm Hg) ([1]; po 30 mg/kg, 3 hours): -15 ± 5 mm Hg | Heart Rate (beats/ min) ([1]; po 30 mg/kg, 3 hours): 18 ± 15 beats/ min | Mean Blood Pressure (mm Hg) ([1]; po 30 mg/kg, 3 hours): -17 ± 11 mm Hg | Systolic Blood Pressure (mm Hg) ([1]; po 30 mg/kg, 3 hours): -26 ± 17 mm Hg | Diastolic Blood Pressure (mm Hg) ([1]; po 30 mg/kg, 4 hours): -20 ± 9 mm Hg | Heart Rate (beats/ min) ([1]; po 30 mg/kg, 4 hours): 20 ± 16 beats/ min | Systolic Blood Pressure (mm Hg) ([1]; po 30 mg/kg, 4 hours): -32 ± 20 mm Hg
